Measurements published in patent US11174250B2, “Substituted carboxamides as inhibitors of WDR5 protein-protein binding” (PROPELLON THERAPEUTICS INC., priority 2016, dated 2021).
Read-outs that look alike come from different tables or passages of the source.

Target: WDR5 protein (Homo sapiens (Human), UniProt P61964)
Assay: Surface Plasmon Resonance (SPR) assay
Format: binding
Conditions: SPR; for residence time: τ=1/koff, read-out: Residence Time (t, min)
[1] = Table 1, read-out: WDR5 binding affinity (KD)
[2] = Table 2, read-out: WDR5 binding affinity SPR (KD)

Protocol: Exemplary compounds of the application were dissolved in 100% DMSO at 10 mM, assayed fresh, and then stored at −20° C. for repeat studies and other experiments. Full length WDR5 with an N-terminal His tag and C-terminal AviTag (Avidity Inc.) was expressed in E. coli with coexpression of BirA to biotin label the protein in vivo. Purification was via Ni-NTA. The purified WDR5 protein has a molecular weight of 41976 Da.
SPR studies were performed using a Biacore™ T200 instrument (GE Health Sciences Inc.). Biotinylated WDR5 protein (approximately 3000RU) was stably captured to streptavidin coupled SA chips according to the manufacture's protocol (GE Health Sciences Inc.). The running buffer used was HBS-EP (20 mM Hepes pH 7.4, 150 mM NaCl, 3 mM EDTA, 0.05% P-20) plus 5% DMSO with a flow rate of 40p1/min. For SPR analysis, 5 different concentrations of each exemplary compound of the application were sprayed into 96 or 384 well plates using an HP D300 digital dispenser. […] Curve fitting and KD calculations were performed with the Biacore T200 Evaluation software (GE Health Sciences Inc).

| Kd [1] [nM] | Kd [2] [nM] | residence time [min] | SMILES |
| --- | --- | --- | --- |
| > 200 | > 200 | – | COc1cc(C(F)(F)F)c(C(=O)Nc2cc(-c3cc(CN4CCC(C(C)C)C4)ccc3F)ccc2N2CCN(C)CC2)cn1 (stereo in doubt) [Example 53, (R)—N-(2′-fluoro-5′-((3-isopropylpyrrolidin-1-yl)methyl)-4-(4-methylpiperazin-1-yl)-[1,1′-biphenyl]-3-yl)-6-methoxy-4-(trifluoromethyl)nicotinamide] |
| 102 | 102 | 0.94 | CN1CCN(c2ccc(-c3ccccc3F)cc2NC(=O)c2c[nH]c(=O)cc2C(F)(F)F)CC1 [Example 25, N-(2′-fluoro-4-(4-methylpiperazin-1-yl)-[1,1′-biphenyl]-3-yl)-6-oxo-4-(trifluoromethyl)-1,6-dihydropyridine-3-carboxamide] |
| > 200 | > 200 | – | COc1cc(C(F)(F)F)c(C(=O)Nc2cc(-c3cc(CN4CCC(N5CCOCC5)CC4)ccc3F)ccc2N2CCN(C)CC2)cn1 [Example 52, N-(2′-fluoro-4-(4-methylpiperazin-1-yl)-5′-((4-morpholinopiperidin-1-yl)methyl)-[,1′-biphenyl]-3-yl)-6-methoxy-4-(trifluoromethyl)nicotinamide] |
| > 200 | > 200 | – | COc1cc(C(F)(F)F)c(C(=O)Nc2cc(-c3cc(CN4CCN(C(C)=O)CC4)ccc3F)ccc2N2CCN(C)CC2)cn1 [Example 54, N-(5′-((4-acetylpiperazin-1-yl)methyl)-2′-fluoro-4-(4-methylpiperazin-1-yl)-[1,1′-biphenyl]-3-yl)-6-methoxy-4-(trifluoromethyl)nicotinamide] |
| > 200 | > 200 | – | COc1cc(C(F)(F)F)c(C(=O)Nc2cc(-c3cc(CN4CCC(F)CC4)ccc3F)ccc2N2CCN(C)CC2)cn1 [Example 55, N-(2′-fluoro-5′-((4-fluoropiperidin-1-yl)methyl)-4-(4-methylpiperazin-1-yl)-[1,1′-biphenyl]-3-yl)-6-methoxy-4-(trifluoromethyl)nicotinamide] |
| > 200 | > 200 | – | COc1cc(C(F)(F)F)c(C(=O)Nc2cc(-c3cc(CN4CC[C@@H](S(C)(=O)=O)C4)ccc3F)ccc2N2CCN(C)CC2)cn1 [Example 57, (R)—N-(2′-fluoro-4-(4-methylpiperazin-1-yl)-5′-((3-(methylsulfonyl)pyrrolidin-1-yl)methyl)-[1,1′-biphenyl]-3-yl)-6-methoxy-4-(trifluoromethyl)nicotinamide] |
| > 200 | > 200 | – | COc1cc(C(F)(F)F)c(C(=O)Nc2cc(-c3cc(CN(C)[C@H]4CCOC4)ccc3F)ccc2N2CCN(C)CC2)cn1 [Example 58, (S)—N-(2′-fluoro-5′-((methyl(tetrahydrofuran-3-yl)amino)methyl)-4-(4-methylpiperazin-1-yl)-[1,1′-biphenyl]-3-yl)-6-methoxy-4-(trifluoromethyl)nicotinamide] |
| > 200 | > 200 | – | COc1cc(C(F)(F)F)c(C(=O)Nc2cc(-c3cc(CN4CCOC(C)(C)C4)ccc3F)ccc2N2CCN(C)CC2)cn1 [Example 59, N-(5′-((2,2-dimethylmorpholino)methyl)-2′-fluoro-4-(4-methylpiperazin-1-yl)-[1,1′-biphenyl]-3-yl)-6-methoxy-4-(trifluoromethyl)nicotinamide] |
| 39 | 39 | 2.5 | C[C@@H]1CN(c2ccc(-c3c(F)ccc(C#N)c3F)cc2NC(=O)c2c[nH]c(=O)cc2C(F)(F)F)C[C@H](C)N1C [Example 78, N-(3′-cyano-2′,6′-difluoro-4-((3S,5R)-3,4,5-trimethylpiperazin-1-yl)-[1,1′-biphenyl]-3-yl)-6-oxo-4-(trifluoromethyl)-1,6-dihydropyridine-3-carboxamide] |
| 2.5 | 2.5 | 16.4 | C[C@@H]1CN(c2ccc(-c3cc(CNC4CCCCC4)c(F)cc3F)cc2NC(=O)c2c[nH]c(=O)cc2C(F)(F)F)C[C@H](C)N1C [Example 79, N-(5′-((cyclohexylamino)methyl)-2′,4′-difluoro-4-((3S,5R)-3,4,5-trimethylpiperazin-1-yl)-[1,1′-biphenyl]-3-yl)-6-oxo-4-(trifluoromethyl)-1,6-dihydropyridine-3-carboxamide] |

The next lines start with the compound.

| SMILES | Kd [1] [nM] | Kd [2] [nM] | residence time [min] |
| --- | --- | --- | --- |
| CN1CCN(c2ccc(-c3cc(C(N)=O)c(O)cc3F)cc2NC(=O)c2c[nH]c(=O)cc2C(F)(F)F)CC1 [Example 4, N-(5′-carbamoyl-2′-fluoro-4′-hydroxy-4-(4-methylpiperazin-1-yl)-[1,1′-biphenyl]-3-yl)-6-oxo-4-(trifluoromethyl)-1,6-dihydropyridine-3-carboxamide] | 86 | 86 | 0.88 |
| CN1CCN(c2ccc(-c3cc(OC(F)(F)F)ccc3F)cc2NC(=O)c2c[nH]c(=O)cc2C(F)(F)F)CC1 [Example 5, N-(2′-fluoro-4-(4-methylpiperazin-1-yl)-5′-(trifluoromethoxy)-[1,1′-biphenyl]-3-yl)-6-oxo-4-(trifluoromethyl)-1,6-dihydropyridine-3-carboxamide] | 29 | 29 | 1.88 |
| COc1cccc(C(=O)Nc2cc(-c3cc(CN4CCOCC4)ccc3F)ccc2N2CCN(C)CC2)c1 [Example 10, N-(2′-fluoro-4-(4-methylpiperazin-1-yl)-5′-(morpholinomethyl)-[1,1′-biphenyl]-3-yl)-3-methoxybenzamide] | 1000 | 1000 | – |
| Cc1c(F)ccc(C(=O)Nc2cc(-c3cc(CN4CCOCC4)ccc3F)ccc2N2CCN(C)CC2)c1Cl [Example 12, 2-chloro-4-fluoro-N-(2′-fluoro-4-(4-methylpiperazin-1-yl)-5′-(morpholinomethyl)-[1,1′-biphenyl]-3-yl)-3-methylbenzamide] | 93 | 93 | 0.6 |
| COC(=O)c1ccc(F)c(-c2ccc(N3CCN(C)CC3)c(NC(=O)c3c[nH]c(=O)cc3C(F)(F)F)c2)c1 [Example 14, methyl 6-fluoro-4′-(4-methylpiperazin-1-yl)-3′-(6-oxo-4-(trifluoromethyl)-1,6-dihydropyridine-3-carboxamido)-[1,1′-biphenyl]-3-carboxylate] | 26 | 26 | 1.36 |
| CN1CCN(c2ccc(-c3cc(CNC4CC4)ccc3F)cc2NC(=O)c2c[nH]c(=O)cc2C(F)(F)F)CC1 [Example 17, N-(5′-((cyclopropylamino)methyl)-2′-fluoro-4-(4-methylpiperazin-1-yl)-[1,1′-biphenyl]-3-yl)-6-oxo-4-(trifluoromethyl)-1,6-dihydropyridine-3-carboxamide] | 14 | 14 | 4.25 |
| Cc1cc(C(=O)Nc2cc(-c3ccc(OC4CCOCC4)nc3F)ccc2N2CCN(C)CC2)cc(C)c1F [Example 19, 4-fluoro-N-(5-(2-fluoro-6-((tetrahydro-2H-pyran-4-yl)oxy)pyridin-3-yl)-2-(4-methylpiperazin-1-yl)phenyl)-3,5-dimethylbenzamide] | 71 | 71 | 1.44 |
| CN1CCN(c2ccc(-c3cc(CN4CCOCC4)ccc3F)cc2NC(=O)c2n[nH]c(=O)cc2C(F)(F)F)CC1 [Example 20, N-(2′-fluoro-4-(4-methylpiperazin-1-yl)-5′-(morpholinomethyl)-[1,1′-biphenyl]-3-yl)-6-oxo-4-(trifluoromethyl)-1,6-dihydropyridazine-3-carboxamide] | 76 | 76 | 0.41 |
| CN1CCN(c2ccc(-c3cc(OCC4CC4)c(F)cc3F)cc2NC(=O)c2c[nH]c(=O)cc2C(F)(F)F)CC1 [Example 21, N-(5′-(cyclopropylmethoxy)-2′,4′-difluoro-4-(4-methylpiperazin-1-yl)-[1,1′-biphenyl]-3-yl)-6-oxo-4-(trifluoromethyl)-1,6-dihydropyridine-3-carboxamide] | 19 | 19 | 1.75 |
| CN1CCN(c2ccc(-c3ccc(N4CCCC4)nc3F)cc2NC(=O)c2c[nH]c(=O)cc2C(F)(F)F)CC1 [Example 22, N-(5-(2-fluoro-6-(pyrrolidin-1-yl)pyridin-3-yl)-2-(4-methylpiperazin-1-yl)phenyl)-6-oxo-4-(trifluoromethyl)-1,6-dihydropyridine-3-carboxamide] | 17 | 17 | 2.3 |
| CN1CCN(c2ccc(-c3cccc(CN4CCOCC4)c3F)cc2NC(=O)c2c[nH]c(=O)cc2C(F)(F)F)CC1 [Example 23, N-(2′-fluoro-4-(4-methylpiperazin-1-yl)-3′-(morpholinomethyl)-[1,1′-biphenyl]-3-yl)-6-oxo-4-(trifluoromethyl)-1,6-dihydropyridine-3-carboxamide] | 79 | 79 | 0.56 |
| Cc1cccc(C(=O)Nc2cc(-c3cc(CN4CCOCC4)ccc3F)ccc2N2CCN(C)CC2)c1 [Example 24, N-(2′-fluoro-4-(4-methylpiperazin-1-yl)-5′-(morpholinomethyl)-[1,1′-biphenyl]-3-yl)-3-methylbenzamide] | 5030 | 5030 | – |
| COc1cc(C(F)(F)F)c(C(=O)Nc2cc(-c3cc(CN4C5COCC4C5)ccc3F)ccc2N2CCN(C)CC2)cn1 [Example 56, N-(5′-(3-oxa-6-azabicyclo[3.1.1]heptan-6-ylmethyl)-2′-fluoro-4-(4-methylpiperazin-1-yl)-[1,1′-biphenyl]-3-yl)-6-methoxy-4-(trifluoromethyl)nicotinamide] | > 200 | > 200 | – |
| CN1CCN(c2ccc(-c3cc(CN4CCOCC4)ccc3F)cc2NC(=O)c2c[nH]c(=O)cc2C(F)(F)F)CC1COC(=O)C(C)(C)C (stereo not shown) [Example 64, (4-(2′-fluoro-5′-(morpholinomethyl)-3-(6-oxo-4-(trifluoromethyl)-1,6-dihydropyridine-3-carboxamido)-[1,1′-biphenyl]-4-yl)-1-methylpiperazin-2-yl)methyl pivalate] | > 200 | 102 | – |
